Each structure is given as a SMILES string. Like-named read-outs stand apart in the source and are kept apart here.

We go through three compounds from article PMC3690439 (Nuclear medicine and biology, 2012).

The target in data set [1] is P-glycoprotein (Pgp) (Homo sapiens, UniProt P08183). The data set can be described thus: Rhodamine 123 efflux inhibition assay in CCRFvcr1000 cells. Type of data set: cell-based.
Data set [2] has as its system EMT6Ar1.0 tumors. To be noted: murine tumor model; cited from earlier work.
Data set [3] deals with P-glycoprotein (Pgp) at the blood-brain barrier (Mus musculus, UniProt P21447). Particulars: FVB wild-type mice; cited from earlier work.
For data set [4], the system named is P-glycoprotein (Pgp) at the blood-brain barrier. Particulars: Mdr1a/b(-/-) mice; cited from earlier work.

Sequence of P-glycoprotein (Pgp) (P08183 whole entry): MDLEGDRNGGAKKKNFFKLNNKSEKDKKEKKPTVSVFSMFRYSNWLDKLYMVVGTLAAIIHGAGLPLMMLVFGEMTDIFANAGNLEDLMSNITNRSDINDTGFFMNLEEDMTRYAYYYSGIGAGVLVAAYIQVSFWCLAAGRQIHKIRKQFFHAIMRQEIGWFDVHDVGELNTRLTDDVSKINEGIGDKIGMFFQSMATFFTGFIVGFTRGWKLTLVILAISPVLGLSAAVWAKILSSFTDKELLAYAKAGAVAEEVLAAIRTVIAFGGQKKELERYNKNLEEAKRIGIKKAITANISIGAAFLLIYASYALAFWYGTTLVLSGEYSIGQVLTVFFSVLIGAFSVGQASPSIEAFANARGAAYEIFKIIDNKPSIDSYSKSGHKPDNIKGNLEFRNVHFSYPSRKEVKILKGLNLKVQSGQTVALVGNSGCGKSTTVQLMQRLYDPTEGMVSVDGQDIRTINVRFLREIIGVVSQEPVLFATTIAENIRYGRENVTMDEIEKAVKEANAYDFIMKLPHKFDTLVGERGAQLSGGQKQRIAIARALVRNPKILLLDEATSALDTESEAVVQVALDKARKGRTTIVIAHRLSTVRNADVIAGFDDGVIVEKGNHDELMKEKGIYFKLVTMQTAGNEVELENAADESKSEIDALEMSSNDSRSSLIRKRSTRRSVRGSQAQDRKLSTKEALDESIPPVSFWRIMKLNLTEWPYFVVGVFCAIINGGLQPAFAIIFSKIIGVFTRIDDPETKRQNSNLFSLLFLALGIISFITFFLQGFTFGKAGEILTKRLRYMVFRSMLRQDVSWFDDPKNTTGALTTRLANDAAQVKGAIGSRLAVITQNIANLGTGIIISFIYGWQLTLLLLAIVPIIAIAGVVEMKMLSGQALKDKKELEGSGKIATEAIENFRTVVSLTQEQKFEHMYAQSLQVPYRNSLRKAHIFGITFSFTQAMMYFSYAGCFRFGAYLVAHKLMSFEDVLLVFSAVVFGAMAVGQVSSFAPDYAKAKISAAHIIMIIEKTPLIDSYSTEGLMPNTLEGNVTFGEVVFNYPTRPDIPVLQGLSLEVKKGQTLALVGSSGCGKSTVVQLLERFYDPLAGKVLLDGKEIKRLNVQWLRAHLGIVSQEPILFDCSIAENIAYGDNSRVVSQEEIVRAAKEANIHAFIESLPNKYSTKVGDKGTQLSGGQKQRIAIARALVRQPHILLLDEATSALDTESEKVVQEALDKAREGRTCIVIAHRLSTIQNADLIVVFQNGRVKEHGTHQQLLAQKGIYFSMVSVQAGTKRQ
Sequence of P-glycoprotein (Pgp) at the blood-brain barrier (Mus musculus, UniProt P21447) (P21447 whole entry): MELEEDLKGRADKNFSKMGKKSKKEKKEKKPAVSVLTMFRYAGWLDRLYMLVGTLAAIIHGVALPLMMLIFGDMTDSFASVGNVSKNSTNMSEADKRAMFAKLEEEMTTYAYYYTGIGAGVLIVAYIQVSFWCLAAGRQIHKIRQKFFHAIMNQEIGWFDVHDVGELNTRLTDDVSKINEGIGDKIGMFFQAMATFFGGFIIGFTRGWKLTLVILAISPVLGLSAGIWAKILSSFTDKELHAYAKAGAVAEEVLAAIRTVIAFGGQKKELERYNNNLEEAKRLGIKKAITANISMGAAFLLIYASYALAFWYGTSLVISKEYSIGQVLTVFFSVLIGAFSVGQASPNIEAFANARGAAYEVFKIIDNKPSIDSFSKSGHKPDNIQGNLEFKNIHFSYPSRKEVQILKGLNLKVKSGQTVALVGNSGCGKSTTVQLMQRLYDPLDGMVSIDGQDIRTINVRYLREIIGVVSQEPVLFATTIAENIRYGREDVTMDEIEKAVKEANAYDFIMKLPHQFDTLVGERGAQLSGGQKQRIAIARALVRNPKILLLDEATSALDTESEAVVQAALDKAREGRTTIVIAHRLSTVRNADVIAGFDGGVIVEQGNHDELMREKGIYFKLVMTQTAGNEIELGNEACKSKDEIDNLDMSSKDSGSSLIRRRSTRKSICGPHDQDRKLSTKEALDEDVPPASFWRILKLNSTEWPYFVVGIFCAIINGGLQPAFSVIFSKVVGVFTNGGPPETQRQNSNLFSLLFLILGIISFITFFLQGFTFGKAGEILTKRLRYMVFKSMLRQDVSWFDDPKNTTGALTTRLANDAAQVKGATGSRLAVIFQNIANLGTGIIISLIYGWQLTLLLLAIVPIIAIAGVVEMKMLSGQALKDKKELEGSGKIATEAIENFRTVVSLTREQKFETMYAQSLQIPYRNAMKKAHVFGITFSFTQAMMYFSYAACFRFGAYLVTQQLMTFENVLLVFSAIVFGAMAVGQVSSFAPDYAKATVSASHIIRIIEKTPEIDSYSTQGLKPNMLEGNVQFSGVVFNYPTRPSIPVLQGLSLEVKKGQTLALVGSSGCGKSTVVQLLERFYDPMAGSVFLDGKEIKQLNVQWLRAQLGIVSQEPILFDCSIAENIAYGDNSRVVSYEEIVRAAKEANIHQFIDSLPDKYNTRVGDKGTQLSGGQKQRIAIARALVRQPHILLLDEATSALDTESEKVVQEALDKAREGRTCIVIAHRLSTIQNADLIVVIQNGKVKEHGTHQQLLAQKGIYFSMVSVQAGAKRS

One may read the IC50 as the point on the concentration scale where inhibition reaches its midpoint. In turn, `COc1cc2c(cc1OC)CN(CCc1ccc(NC(=O)c3cc(OC)c(OC)cc3NC(=O)c3cnc4ccccc4c3)cc1)CC2` [tariquidar] displayed an IC50 in data set [1] of 8.5 ± 2.5 nM. `COc1ccc(-c2ccc(CN3CCc4cc(OC)c(OC)cc4C3)cc2)cc1` [MC113]: the IC50 in data set [1] (read-out: IC50 for inhibition of Pgp-mediated rhodamine 123 efflux, CCRFvcr1000 cells, mean±SD, at least 3 independent experiments in duplicate) turned out to be 375 ± 60 nM. As for `COc1cc2c(cc1OC)CN(CCc1ccc(NC(=O)c3cc(OC)c(OC)cc3NC(=O)c3cnc4ccccc4c3)cc1)CC2` [[^11C]tariquidar], the “higher AUC0-60 in EMT6Ar1.0 than in EMT6 tumors” value in data set [2] is “approximately 60%”. The “mean brain AUC0-60” value is 9 ± 1 min in data set [3] and 17 ± 2 min in data set [4].
